Our source for the Ki and EC50 values is patent US10035800B2 (AbbVie Inc., priority 2013, dated 2018).

In one assay the target is T1, BRD4 (BDI_K57-E168) (Homo sapiens, UniProt O60885).
T1 construct: BD1: amino acids K57-E168; made in house
Briefly: TR-FRET bromodomain binding assay, first bromodomain of BRD4. To be noted: 100 nM probe. The procedure, abridged:
(§1)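 Ki values derive from IC50s using probe Kd and concentration, with IC50s fitted to normalized TR-FRET ratios (Ex 340/Em 495, 520). Compounds competed against an Alexa647-labelled BET-inhibitor (100 nM BDI, 30 nM BDII) for 8 nM His-tagged bromodomain bound by Eu-anti-His antibody, 1 h, room temperature, pH 6.0.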

Another assay deals with T2, BRD4 (BDII_E352-M457) (Homo sapiens, UniProt O60885).
T2 construct: protocol; made in house
Briefly: TR-FRET bromodomain binding assay, second bromodomain of BRD4. To be noted: 30 nM probe. In outline: as §1

In assay [1] the test system is breast cancer cell line MX-1. Briefly: MX-1 cell line proliferation assay. Type of assay: cell-based. To be noted: MX-1 cells, 3-day proliferation assay, Cell Titer Glo; read-out: Cellular proliferation: EC50. In outline: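 EC50 comes from sigmoidal fits of Cell Titer Glo luminescence relative to DMSO controls, with assay MSR 2.1. Ten-point 3-fold dilutions (top 3 or 1 μM final) were added to MX-1 breast cancer cells after overnight adhesion. Cells were at 5000/well and proliferation ran 3 days.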

[2] abbreviates: TR-FRET assay protocol G (compound 0.92 μM-15 pM).
Where [3] appears, read: TR-FRET assay protocol E (compound 9.19 μM-150 pM).

Molecules are shown by their SMILES. pEC50, pKi: −log10 of the molar value.

As usually defined, the pKi is −log10 of the Ki, conventionally taken in molar units. Read a low pKi as a large Ki. Consider `Cn1cc2c3c(c[nH]c3c1=O)C(CN)N(c1ccc(F)cc1F)c1ccc(CS(C)(=O)=O)cc1-2` (stereo not drawn) [Example 129, 3-(aminomethyl)-4-(2,4-difluorophenyl)-10-methyl-7-((methylsulfonyl)methyl)-3,4-dihydro-1H-1,4,10-triazadibenzo[cd,f]azulen-11(10H)-one], for which the pKi on BRD4 (BDI_K57-E168) (setting [2]) is 7.79; at BRD4 (BDII_E352-M457) (setting [2]), 8.60. In assay [1], the pEC50 was 6.60.
`Cn1cc2c3c(c[nH]c3c1=O)C(c1ccc(C#N)cc1)N(c1ccc(F)cc1F)c1ccc(CS(C)(=O)=O)cc1-2` (racemic) [Example 235, 4-(4-(2,4-difluorophenyl)-10-methyl-7-((methylsulfonyl)methyl)-11-oxo-3,4,10,11-tetrahydro-1H-1,4,10-triazadibenzo[cd,f]azulen-3-yl)benzonitrile]: the pKi is 7.79 at BRD4 (BDI_K57-E168) (setting [2]) and 8.19 on BRD4 (BDII_E352-M457) (setting [2]). Moreover, in assay [1], the pEC50 was 6.79.
For `Cn1ccc(CN2Cc3c[nH]c4c(=O)n(C)cc(c34)-c3cc(CS(C)(=O)=O)ccc32)n1` [Example 255, 10-methyl-4-((1-methyl-1H-pyrazol-3-yl)methyl)-7-((methylsulfonyl)methyl)-3,4-dihydro-1H-1,4,10-triazadibenzo[cd,f]azulen-11(10H)-one], the pKi on BRD4 (BDI_K57-E168) (setting [2]) was 8.34; on BRD4 (BDII_E352-M457) (setting [2]), 8.13. For the same molecule, the pEC50 in assay [1] was 7.46.
For the molecule `Cn1cc2c3c(c[nH]c3c1=O)CN(CC(C)(C)CN1CCCC1)c1ccc(CS(C)(=O)=O)cc1-2` [Example 178], the pKi at BRD4 (BDI_K57-E168) (setting [2]) and at BRD4 (BDII_E352-M457) (setting [2]) was 8.36 in each case. Further, the pEC50 in assay [1] was 6.91.
Regarding `COc1ccccc1OC(=O)N1Cc2c[nH]c3c(=O)n(C)cc(c23)-c2cc(CS(C)(=O)=O)ccc21` [Example 95, 2-methoxyphenyl 10-methyl-7-((methylsulfonyl)methyl)-11-oxo-10,11-dihydro-1H-1,4,10-triazadibenzo[cd,f]azulene-4(3H)-carboxylate], the results for the negative logarithm of the Ki (pKi) on BRD4 (BDI_K57-E168) (setting [2]) and at BRD4 (BDII_E352-M457) (setting [2]) were 8.66 and 8.60, respectively. For the same molecule, in assay [1], the pEC50 was 7.85.
With `Cn1cc2c3c(c[nH]c3c1=O)C(/C=C/c1ccc(F)cc1)Nc1ccc(CS(C)(=O)=O)cc1-2` (racemic) [Example 20, (E)-3-(4-fluorostyryl)-10-methyl-7-((methylsulfonyl)methyl)-3,4-dihydro-1H-1,4,10-triazadibenzo[cd,f]azulen-11(10H)-one], the values for the pKi at BRD4 (BDI_K57-E168) (setting [3]) and at BRD4 (BDII_E352-M457) (setting [3]) were 6.80 and 7.61, respectively. Further, in assay [1], the pEC50 is 6.26.
In the case of `Cn1cc2c3c(c[nH]c3c1=O)C(CCCOc1ccccc1)N(c1ccc(F)cc1F)c1ccc(CS(C)(=O)=O)cc1-2` [Example 145, (R)-4-(2,4-difluorophenyl)-10-methyl-7-((methylsulfonyl)methyl)-3-(3-phenoxypropyl)-3,4-dihydro-1H-1,4,10-triazadibenzo[cd,f]azulen-11(10H)-one], the negative logarithm of the Ki (pKi) is 7.26 at BRD4 (BDI_K57-E168) (setting [2]) and 8.86 on BRD4 (BDII_E352-M457) (setting [2]). The pEC50 in assay [1] was 7.09.
For the molecule `Cn1cc2c3c(c[nH]c3c1=O)C(C(=O)NCCc1ccccc1)N(c1ccc(F)cc1F)c1ccc(CS(C)(=O)=O)cc1-2` (stereo not drawn) [Example 156, 4-(2,4-difluorophenyl)-10-methyl-7-((methylsulfonyl)methyl)-11-oxo-N-phenethyl-3,4,10,11-tetrahydro-1H-1,4,10-triazadibenzo[cd,f]azulene-3-carboxamide], the values for the pKi on BRD4 (BDI_K57-E168) (setting [2]) and at BRD4 (BDII_E352-M457) (setting [2]) were 7.33 and 7.38, respectively. Also, the pEC50 in assay [1] was 6.67.
For `CN(C)C(=O)CCC1c2c[nH]c3c(=O)n(C)cc(c23)-c2cc(CS(C)(=O)=O)ccc2N1c1ccc(F)cc1F` (stereo not drawn) [Example 119, 3-(4-(2,4-difluorophenyl)-10-methyl-7-((methylsulfonyl)methyl)-11-oxo-3,4,10,11-tetrahydro-1H-1,4,10-triazadibenzo[cd,f]azulen-3-yl)-N,N-dimethylpropanamide], the pKi is 7.92 on BRD4 (BDI_K57-E168) (setting [2]) and 9.22 on BRD4 (BDII_E352-M457) (setting [2]). The pEC50 in assay [1] is 6.87.
